Source: ChEMBL document CHEMBL1201862, “PubChem BioAssay data set” (2004)
Active and inactive are the calls of the source. Rule as the data show it, for most assays here: active = IC50 of 10 µM or less and inactive = more.

Columns and labels:
Format in all cases: functional
[1] = biological target: Melanin-concentrating hormone receptor 1 (Homo sapiens, UniProt Q99705); experiment: Fluorescence-based counterscreen for antagonists of the G-protein coupled receptor 7 (GPR7): cell-based high throughput dose response assay to identify antagonists of the melanin-concentrating hormone receptor 1 (MCHR1).
Sequence of Melanin-concentrating hormone receptor 1 (Q99705 whole entry): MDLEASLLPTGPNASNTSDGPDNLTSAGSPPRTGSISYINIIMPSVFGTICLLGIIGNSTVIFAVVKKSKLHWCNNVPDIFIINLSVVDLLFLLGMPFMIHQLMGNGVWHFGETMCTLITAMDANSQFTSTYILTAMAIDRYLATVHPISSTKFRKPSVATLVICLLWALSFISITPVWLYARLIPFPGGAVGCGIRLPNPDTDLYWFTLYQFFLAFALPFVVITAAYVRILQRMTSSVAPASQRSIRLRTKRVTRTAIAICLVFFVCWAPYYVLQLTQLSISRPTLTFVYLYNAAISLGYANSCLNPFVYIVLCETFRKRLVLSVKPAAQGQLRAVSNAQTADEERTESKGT

[2] = biological target: Neuropeptides B/W receptor type 1 (Homo sapiens, UniProt P48145); experiment: Fluorescence-based dose response cell-based high throughput screening assay to identify antagonists of the G-protein coupled receptor 7 (GPR7). [Related pubchem assays: 1952 (Screening assay (GPR7 antagonists).), 1880 (Summary AID.)]
Sequence of Neuropeptides B/W receptor type 1 (P48145 whole entry): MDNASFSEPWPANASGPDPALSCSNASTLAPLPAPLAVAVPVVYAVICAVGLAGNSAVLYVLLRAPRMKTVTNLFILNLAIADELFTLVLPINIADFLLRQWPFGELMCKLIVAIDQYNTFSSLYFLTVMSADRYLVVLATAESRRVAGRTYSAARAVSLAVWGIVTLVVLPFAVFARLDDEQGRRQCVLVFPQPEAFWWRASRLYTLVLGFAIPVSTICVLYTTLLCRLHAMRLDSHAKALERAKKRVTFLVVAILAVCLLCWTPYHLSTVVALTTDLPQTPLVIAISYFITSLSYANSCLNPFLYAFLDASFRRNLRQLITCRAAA

[3] = tested on: HEK293; experiment: Fluorescence-based counterscreen for potentiators or agonists of NPY-Y1: cell-based high-throughput dose response assay for inhibitors of cyclic nucleotide gated ion channel (CNGC) activity. In this assay, the parental HEK293 cell line transfected with a cyclic-nucleotide gated ion channel (CNGC)-based cAMP sensor is used to measure inhibition of isoproterenol-induced CNGC …; details: Homo sapiens
[4] = biological target: T1, Neuropeptide Y receptor type 2 (Homo sapiens, UniProt P49146); experiment: Fluorescence-based counterscreen for agonists of NPY-Y1: cell-based high-throughput dose response assay for agonists of NPY-Y2.
T1 sequence (P49146 whole entry): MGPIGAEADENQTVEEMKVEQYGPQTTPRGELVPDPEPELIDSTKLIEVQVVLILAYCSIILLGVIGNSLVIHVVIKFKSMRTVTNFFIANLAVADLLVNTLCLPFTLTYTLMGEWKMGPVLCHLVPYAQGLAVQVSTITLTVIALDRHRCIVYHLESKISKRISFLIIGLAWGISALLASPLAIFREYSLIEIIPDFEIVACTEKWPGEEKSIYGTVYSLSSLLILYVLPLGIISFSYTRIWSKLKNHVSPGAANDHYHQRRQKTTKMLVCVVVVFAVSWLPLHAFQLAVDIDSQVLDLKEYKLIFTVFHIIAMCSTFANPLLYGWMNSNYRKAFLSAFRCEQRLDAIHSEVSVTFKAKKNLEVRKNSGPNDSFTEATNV

[5] = biological target: T2, Neuropeptide Y receptor type 1 (Homo sapiens, UniProt P25929); experiment: Fluorescence-based dose response cell-based high-throughput screening assay for agonists of NPY-Y1. [Related pubchem assays: 1697 (Screening assay (NPY-Y1 agonists).), 1359 (Screening assay (NPY-Y2 potentiators or agonists).), 1304 (Screening assay (NPY-Y1 potentiators or agonists).), 1704 (Screening assay (CNGC inhibitors).), 1791 (Summary AID.)]
T2 sequence (P25929 whole entry): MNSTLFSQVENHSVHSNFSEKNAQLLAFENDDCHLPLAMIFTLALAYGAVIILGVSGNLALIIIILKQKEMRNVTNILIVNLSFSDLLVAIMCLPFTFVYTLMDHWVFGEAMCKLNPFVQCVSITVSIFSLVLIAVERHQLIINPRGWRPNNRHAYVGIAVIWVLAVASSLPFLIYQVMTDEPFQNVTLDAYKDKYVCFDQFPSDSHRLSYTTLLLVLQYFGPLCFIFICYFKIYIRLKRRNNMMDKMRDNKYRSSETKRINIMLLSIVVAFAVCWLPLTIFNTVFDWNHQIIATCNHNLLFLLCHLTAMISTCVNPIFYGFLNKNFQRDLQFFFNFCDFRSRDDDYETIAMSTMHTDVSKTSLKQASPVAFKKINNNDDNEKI

IC50 [1] | IC50 [2] | SMILES | IC50 [3] | EC50 [4] | EC50 [5]
12 µM (not active) | 5.86 µM (active) | COc1cc(/C=C(\C#N)C(=O)Nc2ccc(C(=O)O)cc2)ccc1OC(=O)c1cccc(F)c1 |  |  | 
 |  | O=C(Nc1ccncc1)c1ccc2c(c1)C(=O)N(C1CCCCC1)C2=O | > 35.4 µM (not active) | > 35.4 µM (not active) | > 35.4 µM (not active)
